For assay [1], the target named is T1, BIKE (amino acids S38-E345) (K320A, K321A) (Homo sapiens, UniProt Q9NSY1, K320A/K321A).
T1 construct: against BIKE (amino acids S38-E345) (K320A, K321A); 6His (N, cleaved yes)
Briefly: BIKE pSENs assay. In kind it is biochemical. The settings on record: class symbols; read-out: BIKE pSENs: IC50. The method, then: The recombinant proteins were independently expressed in Escherichia coli BL21(DE3) cells cultured in Luria-Bertani (LB) medium until OD600 reached 0.6-0.8, then cooled to 15° C. and supplemented with 0.5 mM isopropyl 1-thio-D-galactopyranoside (IPTG) induce protein expression 16 h. Cells were harvested and resuspended in lysis buffer (50 mM HEPES pH 7.5, 500 mM NaCl, 5 mM imidazole, 5% glycerol, 0.5 mM Tris (2-carboxyethyl) phosphine (TCEP), cOmplete Protease Inhibitor Tablet (Roche)) and lysed by microfludics high pressure homogenizer (UH-06, Union-Biotech). Proteins were purified using […] chromatography (His FF column, Bestchrom) and eluted stepwise in binding buffer with 20-300 mM imidazole. Removal of the hexahistidine tag was performed at 4° C. overnight using recombinant TEV protease and reacted with BirA to obtain the corresponding biotinylated-AAK1, BIKE or GAK proteins. Further separated in the reverse Strep column (Strep-Tactin® XT, IBA). The Biotin elution sample was collected containing untagged biotinylated protein was then purified by Ion-exchange chromatography (Mono Q 10/100 GL, Cytiva) and Size-exclusion chromatography (HiLoad 16/600 Superdex 200 pg, Cytiva). The pure protein was stored in a storage buffer 50 mM HEPES (pH 7.5), 300 mM NaCl, 5% glycerol at −80° C. Protein were characterized by SDS-PAGE, LC-MS and aSEC.
BIKE protein was dissolved at 20 nM in 1× enzyme solution (50 mM HEPES pH7.5, 10 mM MgCl2, 1 mM DTT, 1% glycerol, 0.5 mM EGTA, 0.01% Briji35, 0.02% BSA) and 12.5 ul was incubated with 250 nl DMSO or 250 nl compound in DMSO at 25° C. for 15 min. The reaction was started by addition of 12.5 ul of 30 uM AQT0759 (Assayquant, CSKS-AQT0759B) and 40 uM ATP which were diluted in 1× substrate dilution buffer (50 mM HEPES pH7.5, 10 mM MgCl2, 1 mM DTT, 1% glycerol, 0.5 mM EGTA, 0.01% Briji35).

The target of assay [2] is T2, AAK1 (amino acids T27-A365) (Homo sapiens, UniProt Q2M2I8).
T2 construct: against AAK1 (amino acids T27-A365); 6His (N, cleaved yes)
T2 sequence (Q2M2I8 27-365): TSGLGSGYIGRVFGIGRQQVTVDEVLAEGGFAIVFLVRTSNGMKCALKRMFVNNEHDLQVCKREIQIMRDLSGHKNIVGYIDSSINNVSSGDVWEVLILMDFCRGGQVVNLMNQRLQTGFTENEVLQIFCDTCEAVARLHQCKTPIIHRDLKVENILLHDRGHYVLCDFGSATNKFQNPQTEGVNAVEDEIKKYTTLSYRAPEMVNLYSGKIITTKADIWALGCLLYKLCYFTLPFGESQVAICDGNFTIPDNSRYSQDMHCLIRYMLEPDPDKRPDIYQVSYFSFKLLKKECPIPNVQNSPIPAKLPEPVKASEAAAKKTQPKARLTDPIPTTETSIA
As to the kind of experiment: AAK1 pSENs assay. In kind it is biochemical. The following applies: class symbols; read-out: AAK1 pSENs: EIC50. The gist of the method:
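Biotinylated, tag-free AAK1 T27-A365 expressed in E. coli was held at 20 nM in enzyme solution (HEPES pH 7.5, 10 mM MgCl2, DTT, EGTA, Brij35, BSA) and preincubated with compound for 15 min at 25 °C. The reaction was started with an equal volume of substrate solution containing 30 uM AQT0759 peptide and 70 uM ATP. IC50 determined.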

For assay [3], the target named is AAK1 (Homo sapiens, UniProt Q2M2I8). As to the kind of experiment: pAP2M1 cell-based assay (in-cell Western). The settings on record: Hela cells co-transfected with AP2M1 and AAK1, 3 hr treatment; class symbols; read-out: AAK1 In-cell Western: IC50. An excerpt: pAP2M1 Cell-Based Assay (in-Cell Western):
The plate was read on Licor Odyssey CLx imaging system (LICOR) to acquire fluorescence intensity at 700 channel and 800 channel.
Data analysis: Fluorescence intensity at 700 channel served as internal standard and 800 channel were normalized with 700 channel.

Some results are limits rather than exact numbers.

We go through 17 compounds from patent US20250122207A1, “AP2 ASSOCIATED KINASE 1 INHIBITORS AND USES THEREOF” (Satellos Bioscience Inc., priority 2023, published 2025).

Sequence of AAK1 (Q2M2I8 whole entry): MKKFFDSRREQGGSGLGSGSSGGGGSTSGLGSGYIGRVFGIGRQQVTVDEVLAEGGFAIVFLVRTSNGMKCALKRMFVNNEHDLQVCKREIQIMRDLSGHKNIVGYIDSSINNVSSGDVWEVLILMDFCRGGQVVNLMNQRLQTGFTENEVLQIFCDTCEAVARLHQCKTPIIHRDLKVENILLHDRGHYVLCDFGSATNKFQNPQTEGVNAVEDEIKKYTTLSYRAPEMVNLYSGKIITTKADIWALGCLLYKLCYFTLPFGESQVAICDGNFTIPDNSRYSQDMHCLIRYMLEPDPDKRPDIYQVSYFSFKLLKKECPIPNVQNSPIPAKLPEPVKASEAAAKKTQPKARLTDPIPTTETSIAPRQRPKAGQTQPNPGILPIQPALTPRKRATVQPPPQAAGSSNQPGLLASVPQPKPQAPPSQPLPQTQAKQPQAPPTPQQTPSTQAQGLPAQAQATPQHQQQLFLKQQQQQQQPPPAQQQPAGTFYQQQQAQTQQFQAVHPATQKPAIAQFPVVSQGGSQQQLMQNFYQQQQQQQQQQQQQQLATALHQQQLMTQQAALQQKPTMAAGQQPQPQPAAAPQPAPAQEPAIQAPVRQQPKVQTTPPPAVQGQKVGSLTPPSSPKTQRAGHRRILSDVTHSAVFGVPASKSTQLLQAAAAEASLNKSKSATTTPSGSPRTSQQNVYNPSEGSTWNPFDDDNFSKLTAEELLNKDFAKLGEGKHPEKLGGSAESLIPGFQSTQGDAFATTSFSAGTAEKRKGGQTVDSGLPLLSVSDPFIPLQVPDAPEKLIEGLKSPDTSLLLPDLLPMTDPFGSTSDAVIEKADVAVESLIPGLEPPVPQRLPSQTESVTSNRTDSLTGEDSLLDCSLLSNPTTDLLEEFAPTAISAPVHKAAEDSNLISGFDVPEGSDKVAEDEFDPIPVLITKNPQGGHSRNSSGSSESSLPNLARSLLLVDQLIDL
T1 sequence (Q9NSY1 38-345 K320A/K321A): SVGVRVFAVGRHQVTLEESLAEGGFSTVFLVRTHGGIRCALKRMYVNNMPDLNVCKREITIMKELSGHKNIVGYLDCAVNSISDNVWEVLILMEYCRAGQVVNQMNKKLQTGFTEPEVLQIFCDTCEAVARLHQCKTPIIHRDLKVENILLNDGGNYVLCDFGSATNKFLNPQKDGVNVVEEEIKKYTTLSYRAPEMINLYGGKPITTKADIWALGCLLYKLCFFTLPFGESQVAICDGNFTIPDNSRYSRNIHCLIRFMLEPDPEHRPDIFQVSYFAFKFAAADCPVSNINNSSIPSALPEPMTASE

For the compound `O=C(O[C@H]1CO[C@H]2OCC[C@H]21)N1CCN(c2ccn3ncc(-c4cccnc4OC4CC4)c3n2)CC1` [Compound I-27, [(3aS,4R,6aR)-2,3,3a,4,5,6a-hexahydrofuro[2,3-b]furan-4-yl]-4-[3-[2-(cyclopropoxy)-3-pyridyl]pyrazolo[1,5-a]pyrimidin-5-yl]piperazine-1-carboxylate], the IC50 lay within 151 to 500 nM in assay [1], 1 to 50 nM in assay [2] and 151 to 500 nM in assay [3].

In the case of `CC(C)Oc1ncccc1-c1cnn2ccc(N3CCN(C(=O)O[C@@H]4CNC(=O)C4)CC3)nc12` [Compound I-26, [(3S)-5-Oxopyrrolidin-3-yl]-4-[3-(2-isopropoxy-3-pyridyl)pyrazolo[1,5-a]pyrimidin-5-yl]piperazine-1-carboxylate], the IC50 lay in the range of 501 to 1500 nM in assay [1], 1 to 50 nM in assay [2] and 501 to 1500 nM in assay [3].

Turning to `COc1ncccc1-c1cnn2ccc(N3CCN(C(=O)OC4CNC(=O)C4)CC3)nc12` (stereo not drawn) [Compound I-6, (5-Oxopyrrolidin-3-yl) 4-[3-(2-methoxy-3-pyridyl)pyrazolo[1,5-a]pyrimidin-5-yl]piperazine-1-carboxylate], the values for the IC50 in assay [1], in assay [2] and in assay [3] were 1 to 50 nM, 1 to 50 nM and 501 to 1500 nM, respectively.

On to `O=C1C[C@H](OC(=O)N2CCN(c3ccn4ncc(-c5cccnc5OC5CC5)c4n3)CC2)CN1` [Compound I-11, [(3S)-5-Oxopyrrolidin-3-yl]-4-[3-[2-(cyclopropoxy)-3-pyridyl]pyrazolo[1,5-a]pyrimidin-5-yl]piperazine-1-carboxylate hydrochloric acid], for which the IC50 in assay [1] was 151 to 500 nM; in assay [2], 1 to 50 nM; in assay [3], 151 to 500 nM.

For the compound `CN1C[C@@H](OC(=O)N2CCN(c3nc4c(-c5cccnc5OC5CCOCC5)cnn4cc3F)CC2)CC1=O` [Compound I-122, [(3S)-1-methyl-5-oxo-pyrrolidin-3-yl]4-[6-fluoro-3-(2-tetrahydropyran-4-yloxy-3-pyridyl)pyrazolo[1,5-a]pyrimidin-5-yl]piperazine-1-carboxylate], the results for the IC50 in assay [1], in assay [2] and in assay [3] were 151 to 500 nM, 51 to 150 nM and 501 to 1500 nM, respectively.

`CN1CC[C@@](C)(OC(=O)N2CCN(c3ccn4ncc(-c5cccnc5OC5CC5)c4n3)CC2)C1` [Compound I-50, [(3R)-1,3-dimethylpyrrolidin-3-yl]-4-[3-[2-(cyclopropoxy)-3-pyridyl]pyrazolo[1,5-a]pyrimidin-5-yl]piperazine-1-carboxylate]: the values for the IC50 in assay [1], in assay [2] and in assay [3] were 501 to 1500 nM, 1 to 50 nM and 151 to 500 nM, respectively.

With `COC(=O)N1CC(Oc2ncccc2-c2cnn3ccc(NCCN(C)C(=O)OC(C)(C)C)nc23)C1` [Compound I-64, Methyl3-[[3-[5-[2-[tert-butoxycarbonyl(methyl)amino]ethylamino]pyrazolo[1,5-a]pyrimidin-3-yl]-2-pyridyl]oxy]azetidine-1-carboxylate], the values for the IC50 in assay [1], in assay [2] and in assay [3] were 51 to 150 nM, 1 to 50 nM and 51 to 150 nM, respectively.

Turning to `CN1C[C@@H](OC(=O)N2CCN(c3nc4c(-c5cccnc5OC5CCCC5)cnn4cc3F)CC2)CC1=O` [Compound I-121, [(3S)-1-methyl-5-oxo-pyrrolidin-3-yl]-4-[3-[2-(cyclopentoxy)-3-pyridyl]-6-fluoro-pyrazolo[1,5-a]pyrimidin-5-yl]piperazine-1-carboxylate], the results for the IC50 in assay [1], in assay [2] and in assay [3] were 501 to 1500 nM, 51 to 150 nM and more than 1500 nM, respectively.

Consider `CC(C)N1C[C@@H](OC(=O)N2CCN(c3ccn4ncc(-c5cccnc5OC5CC5)c4n3)CC2)CC1=O` [Compound I-114, [(3S)-1-isopropyl-5-oxo-pyrrolidin-3-yl]-4-[3-[2-(cyclopropoxy)-3-pyridyl]pyrazolo[1,5-a]pyrimidin-5-yl]piperazine-1-carboxylate], for which the IC50 was 501 to 1500 nM in assay [1], 51 to 150 nM in assay [2] and more than 1500 nM in assay [3].

Take `COCCN1C[C@@H](OC(=O)N2CCN(c3ccn4ncc(-c5cc(F)cnc5OC5CC5)c4n3)CC2)CC1=O` [Compound I-89]: the values for the IC50 in assay [1], in assay [2] and in assay [3] were 151 to 500 nM, 1 to 50 nM and 501 to 1500 nM, respectively.

For the compound `CC(=O)N1CC(Oc2ncccc2-c2cnn3ccc(NCCN(C)C(=O)OC(C)(C)C)nc23)C1` [Compound I-63, Tert-butyl (2-((3-(2-((1-acetylazetidin-3-yl)oxy)pyridin-3-yl)pyrazolo[1,5-a]pyrimidin-5-yl)amino)ethyl)(methyl)carbamate], the values for the IC50 in assay [1], in assay [2] and in assay [3] were 51 to 150 nM, 1 to 50 nM and 51 to 150 nM, respectively.

On to `C[C@@H]1CN(c2ccn3ncc(-c4cccnc4OC4CC4)c3n2)CCN1C(=O)O[C@@H]1CNC(=O)C1` [Compound I-39, [(3S)-5-oxopyrrolidin-3-yl]-(2R)-4-[3-[2-(cyclopropoxy)-3-pyridyl]pyrazolo[1,5-a]pyrimidin-5-yl]-2-methyl-piperazine-1-carboxylate], for which the IC50 in assay [1] lay within 151 to 500 nM; in assay [2], 1 to 50 nM; in assay [3], 501 to 1500 nM.

For the compound `CN1C[C@@H](OC(=O)N2CCN(c3nc4c(-c5cccnc5OC5CCOC5)cnn4cc3F)CC2)CC1=O` (stereo partly drawn) [Compound I-120, [(3S)-1-methyl-5-oxo-pyrrolidin-3-yl]4-[6-fluoro-3-(2-tetrahydrofuran-3-yloxy-3-pyridyl)pyrazolo[1,5-a]pyrimidin-5-yl]piperazine-1-carboxylate], the IC50 is 151 to 500 nM in assay [1], 51 to 150 nM in assay [2] and more than 1500 nM in assay [3].

In the case of `COCCN1C[C@@H](OC(=O)N2CCN(c3ccn4ncc(-c5cccnc5OC5CC5)c4n3)CC2)CC1=O` [Compound I-115, [(3S)-1-(2-methoxyethyl)-5-oxo-pyrrolidin-3-yl]-4-[3-[2-(cyclopropoxy)-3-pyridyl]pyrazolo[1,5-a]pyrimidin-5-yl]piperazine-1-carboxylate], the IC50 lay within 501 to 1500 nM in assay [1], 1 to 50 nM in assay [2] and 501 to 1500 nM in assay [3].

On to `CNCCN1C[C@@H](OC(=O)N2CCN(c3ccn4ncc(-c5cccnc5OC5CC5)c4n3)CC2)CC1=O` [Compound I-36, (S)-1-(2-(methylamino)ethyl)-5-(oxopyrrolidin-3-yl)-4-(3-(2-cyclopropoxypyridin-3-yl)pyrazolo[1,5-a]pyrimidin-5-yl)piperazine-1-carboxylate], for which the IC50 in assay [1] lay within 51 to 150 nM; in assay [2], 1 to 50 nM; in assay [3], 501 to 1500 nM.

For `CC(C)(C)OC(=O)N1CC(Oc2ncccc2-c2cnn3ccc(N4CCN(C(=O)O[C@@H]5CNC(=O)C5)CC4)nc23)C1` [Compound I-42], the IC50 lay in the range of 151 to 500 nM in assay [1], 1 to 50 nM in assay [2] and 501 to 1500 nM in assay [3].

For the compound `CN1C[C@@H](OC(=O)N2CCN(c3nc4c(-c5cccnc5OC5CC5)cnn4cc3F)CC2)CC1=O` [Compound I-109, [(3S)-1-methyl-5-oxo-pyrrolidin-3-yl]4-[3-[2-(cyclopropoxy)-3-pyridyl]-6-fluoro-pyrazolo[1,5-a]pyrimidin-5-yl]piperazine-1-carboxylate], the IC50 in assay [1] fell in the range of 51 to 150 nM; in assay [2] it was 1 to 50 nM; in assay [3], 151 to 500 nM.
